# Measurements reported in article PMC7841069, “Identification of Chalcone Derivatives as Inhibitors of Leishmania infantum Arginase and Promising Antileishmanial Agents” (Frontiers in Chemistry, 2021).
# Read-outs that look alike come from different tables or passages of the source.
# What was measured:
# [1] = test system: Leishmania infantum promastigotes; experiment: Activity against Leishmania infantum promastigotes (resazurin); type: cell-based; details: for Selectivity Index PRO: CC50 host cell / IC50 promastigotes; for IC50: Leishmania infantum, read-out: Promastigotes IC50 ± SE
# Experimental: Promastigotes of Leishmania infantum strain MHOM/BR/1974/PP75 were cultured in Schneider's medium supplemented with 10% fetal bovine serum at 26°C. First, the selected LiARG inhibitors were diluted in culture medium at concentrations ranging from 2.9 to 1,723.0 μM. Then, late-exponential phase (after 96 h growth) L. infantum promastigotes, at a final density of 10^5 parasites/mL, were incubated with previously diluted inhibitors at 26°C for 96 h. Subsequently, parasite viability was determined by a colorimetric assay using resazurin (Sigma-Aldrich, USA). Resazurin was added to the culture medium at a final concentration of 0.001% (w/v), and cultures were further incubated at 26°C for 4 h (Rólon et al., [2006]). Resazurin is reduced to resorufin by living cells, and the relative concentration of resorufin/resazurin was measured spectrophotometrically at 570/600 nm (SpectraMax M5, Molecular Devices, CA), respectively. Fungizone® (2.0–650.0 nM) was used as the reference drug. The 50% inhibitory concentration (IC50) values were determined by the nonlinear regression fits of the dose-response curves using GraphPad Prism 8.0. All measurements were performed in triplicates, twice independently.
# (§1) The selectivity index for promastigotes and intracellular amastigotes of L. infantum was calculated by taking the ratio between the CC50 obtained for the host cell and the IC50 obtained for the parasite. Inhibitors displaying selectivity index > 10 were considered low cytotoxic (Katsuno et al., [2015]).
# RAW 264.7 macrophages [2] = test system: RAW 264.7 macrophages; parameters: method as in Ventura et al. (2015); details: ref Ventura et al. (2015), read-out: IC50 for NO; cited from earlier work
# Cytotoxicity assay (MTT) = type: cell-based; details: mouse, read-out: RAW 264.7 CC50 ± SE
# Experimental: (§2) RAW 264.7 macrophages were cultured in DMEM medium (Sigma-Aldrich, USA) supplemented with 10% fetal bovine serum at 37°C in 5% CO2 atmosphere. Cells were plated on 96-well microplates at a density of 10^5 cells/well and incubated at 37°C in 5% CO2 for 2 h. After this period, increasing concentrations of inhibitors (0.9–4,307 μM) were added and the cultures were incubated at 37°C in 5% CO2 for 48 h. Subsequently, cell viability was measured by a colorimetric assay using 3-(4,5-dimethylthiazol-2-yl)-2,5-diphenyl tetrazolium bromide (MTT) (Sigma-Aldrich, USA). MTT was added to the culture medium at a final concentration of 1.0 mg/mL, and cultures were incubated at 37°C in 5% CO2 for 3 h. MTT was transformed by the living cells in formazan crystals that were dissolved in DMSO. The concentration of formazan was measured spectrophotometrically at 570 nm (SpectraMax M5, Molecular Devices, CA). The 50% cytotoxic concentration (CC50) values were determined by the nonlinear regression fits of the dose-response curves using GraphPad Prism 8.0. All measurements were performed in triplicates, twice independently.
# [3] = test system: L. infantum-infected macrophages; experiment: NO production by L. infantum-infected macrophages (Griess reaction); type: cell-based; details: 11–54 μM, 48 h, vs untreated control
# Experimental: (§3) Intracellular anti-amastigote activity was determined using the promastigote recovery assay with minor modifications (Ferreira et al., [2017]). RAW 264.7 macrophages were plated on 96-well microplates at a density of 10^5 cells/well and incubated at 37°C in 5% CO2 for 2 h. After this period, adherent cells were washed twice with phosphate buffered saline (PBS, pH 7.2) and infected with stationary-phase L. infantum promastigotes at a 10:1 parasite/macrophage ratio. After 4 h of infection at 37°C in 5% CO2, free parasites were removed by a wash step with PBS and infected macrophages were incubated for an additional 24 h to allow parasite differentiation into amastigotes. Then, infected cells were treated with increasing concentrations of selected LiARG inhibitors (11.0–54.0 μM) for 48 h. After this period, the culture supernatant was collected for the evaluation of NO production by the Griess reaction (Misko et al., [1993]), and cells were washed with PBS. Subsequently, PBHIL medium supplemented with 5% fetal bovine serum was added and the cultures were incubated at 26°C for 72 h to recover L. infantum promastigotes. Only viable amastigotes can differentiate into promastigotes. Then, parasite viability was determined by a colorimetric assay using MTT (1.0 mg/mL) (Sigma-Aldrich, USA), as described earlier. Fungizone® (130–540 nM) was used as the reference drug. Results were expressed as percentages of viability in relation to the control (100% viability). The 50% inhibitory concentration (IC50) values were determined by the nonlinear regression fits of the dose-response curves using GraphPad Prism 8.0. All measurements were performed in triplicates, twice independently.
# Figure 4 Effect of chalcone derivatives on the production of nitric oxide by L. infantum-infected macrophages. L. infantum-infected macrophages were treated with increasing concentrations of (A–D) chalcone derivatives (11–54 μM) or (E) the reference drug fungizone (0.13–0.54 μM) and nitrite concentration was measured by the Griess reaction. Control represents the amount of nitric oxide produced by L. infantum-infected macrophages in the absence of any treatment. Statistical analysis of the differences between mean values obtained for the experimental groups was done by ANOVA with Tukey's post hoc test.
# [4] = test system: Leishmania infantum intracellular amastigotes; experiment: Activity against intracellular amastigotes (promastigote recovery assay); type: cell-based; details: for Selectivity Index AMA: CC50 host cell / IC50 intracellular amastigotes
# Experimental: as §3, §1
# RAW 264.7 macrophages [5] = experiment: Cytotoxicity assay (MTT); type: cell-based; details: 48 h
# Experimental: as §2
# [6] = test system: Leishmania infantum arginase (LiARG); experiment: LiARG enzyme inhibition assay (urea formation, UREA CE kit); type: biochemical; details: 100 μM inhibitor; control without inhibitor = 100% activity
# Experimental: LiARG expression and purification was performed as described previously (Garcia et al., [2019]). Escherichia coli BL21 (DE3) cells were transformed with RP1B-LiARG. Cells were grown at 37°C until mid-exponential phase (Abs600 ~ 0.6). Protein expression was induced with 1 mM IPTG and cells were grown for 16 h at 30°C. Cells were harvested by centrifugation, resuspended in lysis buffer [50 mM Tris-HCl (pH 8.0), 500 mM NaCl, 5 mM imidazol, 0.1% Triton-X 100, 250 μM PMSF, 10 mM β-mercaptoethanol] and lysed by sonication (15 cycles 60 s on and 60 s off, 100 W). The cell lysate was centrifuged (8,000 X g, 40 min, 4°C), and the clarified supernatant was loaded onto a His-Trap HP column (GE Healthcare, USA). A wash step with 100 mM manganese chloride was carried out for enzyme activation. LiARG was eluted with an imidazole gradient ranging from 5 to 500 mM. […] LiARG activity was measured using the UREA CE kit (Labtest, Brazil). Urea concentration was determined spectrophotometrically (SpectraMax M5, Molecular Devices, CA) by hydrolyzing urea into ammonia and then converting ammonia into indophenol blue, which absorbs light at 600 nm ([…] and Scott, [1960]). Enzyme activity was measured with 0.2 μg/mL LiARG incubated with 50 mM L-arginine in 50 mM CHES (pH 9.5) at 37°C for 5 min. […] The results are expressed as percentage of LiARG activity taking the enzymatic activity of the control as 100%. […]
# [7] = test system: Leishmania amazonensis arginase (LaARG); parameters: method as in da Silva et al. (2019); details: 100 μM; ref da Silva et al. (2019); cited from earlier work
# [8] = Leishmania infantum, Macrophage, 48 h, infected macrophages treated 48 h, promastigote recovery, MTT, read-out: Amastigotes IC50 ± SE
SMILES,"IC50 ([1]; 96 h, resazurin)",Selectivity Index PRO [1],CC50 at 48 h (Cytotoxicity assay (MTT); RAW 264.7 macrophages),production of NO by L. infantum-infected macrophages [3],Selectivity Index AMA [4],"IC50 [4, 8]",further results
"COc1ccc(C=CC(=O)c2ccc(Br)cc2)cc1OC [LC14, 1-(4-bromophenyl)-3-(3,4-dimethoxyphenyl)-2-Propen-1-one]",283 ± 14.2 µM,<1,75.1 ± 8.9 µM,–,–,–,IC50 (RAW 264.7 macrophages [2]): 58.9 ± 6.8 µM
"O=C(C=Cc1ccc(F)cc1)c1ccccc1Cl [LC32, 1-(2-Chlorophenyl)-3-(4-fluorophenyl)-2-Propen-1-one]",74.1 ± 10.9 µM,6.5,479 ± 19.5 µM,significantly decreased,4.3,112 ± 19.8 µM,–
"O=C(C=Cc1ccc([N+](=O)[O-])cc1)c1ccc(Br)cc1 [LC39, 1-(4-Bromophenyl)-3-(4-Nitrophenyl)-2-Propen-1-one]",–,11.4,–,no significant difference to the untreated control,107.1,–,"IC50 ([4]; Leishmania infantum, Macrophage, 48 h, read-out: Amastigotes IC50 ± SE, infected macrophages treated 48 h, promastigote recovery, MTT): 55.2 ± 3.8 µM; IC50 ([4]; read-out: Amastigotes IC50 ± SE, infected macrophages treated 48 h, promastigote recovery, MTT): 42.3 ± 17.1 µM; IC50 ([1]; 96 h): 398 ± 44.2 µM; CC50 at 48 h (Cytotoxicity assay (MTT)): 4530 ± 212 µM"
"COc1ccc(C(=O)C=Cc2ccc([N+](=O)[O-])cc2)cc1 [LC41, 1-(4-Methoxyphenyl)-3-(4-Nitrophenyl)-2-Propen-1-one]",319 ± 14.3 µM,3.6,1150 µM,significantly decreased,26.2,70.4 ± 9.6 µM,"IC50 ([4]; infected macrophages treated 48 h, promastigote recovery, MTT, read-out: Amastigotes IC50 ± SE): 43.7 ± 13.7 µM; IC50 (RAW 264.7 macrophages [2]): 13.5 ± 5.5 µM"
O=c1c(O)c(-c2ccc(O)c(O)c2)oc2cc(O)cc(O)c12 [quercetin],–,–,–,–,–,–,ARGLi inhibition (%) (100 μM) [6]: 67.1 ± 10.3%
O=C1c2c(O)cc(O)cc2OC(c2ccc(O)c(O)c2)C1O (stereo not shown) [taxifolin],–,–,–,–,–,–,LaARG inhibition [7]: 88%

# Second part, led by results:
"IC50 ([1]; 96 h, resazurin)",SMILES,Selectivity Index PRO [1],CC50 at 48 h (Cytotoxicity assay (MTT); RAW 264.7 macrophages),production of NO by L. infantum-infected macrophages [3],Selectivity Index AMA [4],"IC50 [4, 8]",further results
747 ± 22.3 µM,COc1ccc(/C=C/C(=O)c2ccccc2Cl)cc1 [LC34],4.0,3010 µM,no significant difference to the untreated control,46.0,65.4 ± 10.9 µM,–
> 1500 µM,"O=C(c1ccccc1)C(C(O)c1ccccc1Cl)C(O)c1ccccc1Cl (stereo not shown) [LC37, 3-hydroxy-2-[-hydroxy(2-Chlorophenyl)methyl]-3-(2-Chlorophenyl)-1-phenyl-1-Propanone]",–,> 4000 µM,–,–,–,"Promastigotes IC50 ± SE ([1]; 96 h, resazurin): did not display in vitro activity; RAW 264.7 CC50 ± SE (RAW 264.7 macrophages [5]): did not inhibit the growth of RAW 264.7 macrophages at the highest concentration tested"
